Assay results as given in patent US10975056B2 (GlaxoSmithKline Intellectual Property Development Limited, priority 2016, dated 2021).
Like-named read-outs stand apart in the source and are kept apart here.

Legend:
DNMT1 = DNMT1 (Homo sapiens, UniProt P26358); assay: DNMT1 biochemical activity, breaklight assay and/or SPA assay
[1] = tested on: erythroid progenitor cells (EPCs); assay: Fetal hemoglobin (HbF) ELISA in day 7 erythroid progenitor cells; format: cell-based, human; details: Homo sapiens, Erythroid progenitor cell, HbF ELISA, day 7 EPCs, 5 days; read-out: EPC ELISA (pEC50 category) (converted);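 further: for fetal hemoglobin induction normalized to vehicle-treated cells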
Outline: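 HbF induction was read by anti-HbF sandwich ELISA (HRP/TMB, OD450) on lysates and normalized to vehicle-treated cells. Cells were day 7 erythroid progenitors derived from human bone marrow CD34+ cells, seeded at 1,000/well with 3 U/mL rhEPO. Compound was given for 5 days at 37 °C at final concentrations […].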

human full length DNMT1 = human full length DNMT1 (Homo sapiens (Human), UniProt P26358); assay: DNMT1 breaklight assay; format: biochemical; details: repeated experimental runs, read-out: average IC50 against DNMT1
Description: DNMT1 breaklight in vitro assays were conducted in a total volume of 50 μl in a standard 384 well format, using black non-binding surface microplates (Corning 3575). Five μl of human full length DNMT1 (produced internally), used at a final concentration of 40 nM, was added to 5 μl of substrate mixture containing final concentrations of 125 nM hemi methylated oligonucleotide (synthesized at ATD Bio; 5′-FAM-[…]5[…]5G5TAGAT-3′ where 5=methyl deoxycitidine) and 2 μM ultrapure SAM (Cisbio #62SAHZLD). Negative control wells used 5 μl of DNMT1 and 5 μl of oligonucleotide but 0 μM SAM. All reagents were made up in 1× assay buffer (20 mM Tris pH 6.8, 25 mM NaCl, 0.5 mM MgCl2, 0.01% Triton X100 and 1 mM DTT). The reaction was incubated at 26° C. for 45 min and then stopped with the addition of 40 μl detection reagent. Detection reagent, made up in 1× Gla assay buffer (20 mM Tris pH 8.0, 80 mM NaCl, 0.75 mM MgCl2, 0.01% Triton X100 and 1 mM DTT) has a final concentration of 100 μM SAH (Sigma #A9384) and 0.0008 units/μl Gla1 restriction endonuclease (Sibenzyme #E494). Following addition of the detection reagent the plate was incubated in the dark at room temperature for 5 hr. Fluorescence intensity was then measured on the PHERAstar FS (BMG Labtech) at Ex 485 nm and Em 520 nm, with a gain of 400 and an integration time of 100 ms.

DNMT3B = DNMT3B (Homo sapiens (Human), UniProt Q9UBC3); assay: DNMT3B breaklight assay; format: biochemical; details: read-out: DNMT3B Breaklight IC50
human DNMT3a/3l = human DNMT3a/3l (Homo sapiens (Human), UniProt Q9Y6K1); assay: DNMT3a/3l breaklight assay; format: biochemical; details: read-out: DNMT3A Breaklight IC50
Description: DNMT3a/3l Breakliqht Assay
DNMT3a/3l breaklight in vitro assays were conducted in a total volume of 50 μl in a standard 384 well format, using black non-binding surface microplates (Corning #3575). […] Negative control wells used 5 μl of DNMT3a/3l and 5 μl of oligonucleotide but also included 200 μM SAH. All reagents were made up in 1× assay buffer (20 mM Tris pH 7.4, 100 mM NaCl, 1.5 mM EDTA, 0.1 mM MgCl2, 1 mM CHAPS and 1 mM DTT). The reaction was incubated at 37° C. for 90 min and then stopped with the addition of 40 μl detection reagent. Detection reagent, made up in 1× Gla assay buffer (20 mM Tris pH 8.0, 80 mM NaCl, 0.75 mM MgCl2, 0.01% Triton X100 and 1 mM DTT) has a final concentration of 200 μM SAH (Sigma #A9384) and 0.0008 units/μl Gla1 restriction endonuclease (Sibenzyme #E494). Following addition of the detection reagent the plate was incubated in the dark at room temperature for 5 hr. Fluorescence intensity was then measured on the PHERAstar FS (BMG Labtech) at Ex 485 nm and Em 520 nm, with a gain of 400 and an integration time of 100 ms.

[2] = binned activity in either the breaklight or the SPA assay
[3] = binned activity in either the breaklight or the SPA assay, read-out: DNMT1 BioChemical (pIC50 category) (converted)

human DNMT3a/3l, sequence (Q9Y6K1 whole entry, looked up): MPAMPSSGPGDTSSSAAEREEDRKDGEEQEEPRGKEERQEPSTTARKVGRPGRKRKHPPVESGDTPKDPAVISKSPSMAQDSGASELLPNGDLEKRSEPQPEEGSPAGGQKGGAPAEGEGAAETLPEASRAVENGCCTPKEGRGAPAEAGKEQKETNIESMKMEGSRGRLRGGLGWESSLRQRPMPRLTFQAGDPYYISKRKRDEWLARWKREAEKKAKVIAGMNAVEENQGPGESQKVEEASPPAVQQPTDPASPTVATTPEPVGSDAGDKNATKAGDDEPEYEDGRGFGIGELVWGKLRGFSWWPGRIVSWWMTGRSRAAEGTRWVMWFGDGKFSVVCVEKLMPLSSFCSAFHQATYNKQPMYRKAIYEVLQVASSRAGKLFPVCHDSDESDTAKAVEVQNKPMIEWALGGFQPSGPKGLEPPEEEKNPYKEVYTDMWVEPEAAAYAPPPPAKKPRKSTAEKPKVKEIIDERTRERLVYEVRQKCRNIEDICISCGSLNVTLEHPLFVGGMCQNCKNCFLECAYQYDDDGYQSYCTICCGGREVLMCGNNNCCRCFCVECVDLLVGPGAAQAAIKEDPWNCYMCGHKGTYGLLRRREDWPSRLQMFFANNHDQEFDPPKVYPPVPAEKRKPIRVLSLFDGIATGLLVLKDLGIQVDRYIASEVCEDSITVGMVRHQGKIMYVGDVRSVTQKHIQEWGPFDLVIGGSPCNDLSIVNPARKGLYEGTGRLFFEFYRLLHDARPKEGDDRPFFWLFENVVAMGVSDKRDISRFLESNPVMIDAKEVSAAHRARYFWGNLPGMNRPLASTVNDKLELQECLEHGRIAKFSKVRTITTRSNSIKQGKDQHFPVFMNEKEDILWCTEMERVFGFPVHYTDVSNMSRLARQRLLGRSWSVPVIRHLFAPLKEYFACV
human DNMT3a/3l, sequence (Q9UJW3 whole entry partner, looked up): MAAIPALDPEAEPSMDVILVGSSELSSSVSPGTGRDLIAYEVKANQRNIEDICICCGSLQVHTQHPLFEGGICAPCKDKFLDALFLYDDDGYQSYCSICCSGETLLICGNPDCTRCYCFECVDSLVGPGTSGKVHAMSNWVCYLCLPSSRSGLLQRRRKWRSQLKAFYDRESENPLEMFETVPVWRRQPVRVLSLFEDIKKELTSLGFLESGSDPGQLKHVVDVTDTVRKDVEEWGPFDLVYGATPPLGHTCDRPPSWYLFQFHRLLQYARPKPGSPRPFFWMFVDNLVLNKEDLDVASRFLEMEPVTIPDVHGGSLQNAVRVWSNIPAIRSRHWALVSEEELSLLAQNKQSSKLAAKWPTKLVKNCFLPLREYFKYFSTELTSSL
DNMT1, sequence (P26358 whole entry, looked up): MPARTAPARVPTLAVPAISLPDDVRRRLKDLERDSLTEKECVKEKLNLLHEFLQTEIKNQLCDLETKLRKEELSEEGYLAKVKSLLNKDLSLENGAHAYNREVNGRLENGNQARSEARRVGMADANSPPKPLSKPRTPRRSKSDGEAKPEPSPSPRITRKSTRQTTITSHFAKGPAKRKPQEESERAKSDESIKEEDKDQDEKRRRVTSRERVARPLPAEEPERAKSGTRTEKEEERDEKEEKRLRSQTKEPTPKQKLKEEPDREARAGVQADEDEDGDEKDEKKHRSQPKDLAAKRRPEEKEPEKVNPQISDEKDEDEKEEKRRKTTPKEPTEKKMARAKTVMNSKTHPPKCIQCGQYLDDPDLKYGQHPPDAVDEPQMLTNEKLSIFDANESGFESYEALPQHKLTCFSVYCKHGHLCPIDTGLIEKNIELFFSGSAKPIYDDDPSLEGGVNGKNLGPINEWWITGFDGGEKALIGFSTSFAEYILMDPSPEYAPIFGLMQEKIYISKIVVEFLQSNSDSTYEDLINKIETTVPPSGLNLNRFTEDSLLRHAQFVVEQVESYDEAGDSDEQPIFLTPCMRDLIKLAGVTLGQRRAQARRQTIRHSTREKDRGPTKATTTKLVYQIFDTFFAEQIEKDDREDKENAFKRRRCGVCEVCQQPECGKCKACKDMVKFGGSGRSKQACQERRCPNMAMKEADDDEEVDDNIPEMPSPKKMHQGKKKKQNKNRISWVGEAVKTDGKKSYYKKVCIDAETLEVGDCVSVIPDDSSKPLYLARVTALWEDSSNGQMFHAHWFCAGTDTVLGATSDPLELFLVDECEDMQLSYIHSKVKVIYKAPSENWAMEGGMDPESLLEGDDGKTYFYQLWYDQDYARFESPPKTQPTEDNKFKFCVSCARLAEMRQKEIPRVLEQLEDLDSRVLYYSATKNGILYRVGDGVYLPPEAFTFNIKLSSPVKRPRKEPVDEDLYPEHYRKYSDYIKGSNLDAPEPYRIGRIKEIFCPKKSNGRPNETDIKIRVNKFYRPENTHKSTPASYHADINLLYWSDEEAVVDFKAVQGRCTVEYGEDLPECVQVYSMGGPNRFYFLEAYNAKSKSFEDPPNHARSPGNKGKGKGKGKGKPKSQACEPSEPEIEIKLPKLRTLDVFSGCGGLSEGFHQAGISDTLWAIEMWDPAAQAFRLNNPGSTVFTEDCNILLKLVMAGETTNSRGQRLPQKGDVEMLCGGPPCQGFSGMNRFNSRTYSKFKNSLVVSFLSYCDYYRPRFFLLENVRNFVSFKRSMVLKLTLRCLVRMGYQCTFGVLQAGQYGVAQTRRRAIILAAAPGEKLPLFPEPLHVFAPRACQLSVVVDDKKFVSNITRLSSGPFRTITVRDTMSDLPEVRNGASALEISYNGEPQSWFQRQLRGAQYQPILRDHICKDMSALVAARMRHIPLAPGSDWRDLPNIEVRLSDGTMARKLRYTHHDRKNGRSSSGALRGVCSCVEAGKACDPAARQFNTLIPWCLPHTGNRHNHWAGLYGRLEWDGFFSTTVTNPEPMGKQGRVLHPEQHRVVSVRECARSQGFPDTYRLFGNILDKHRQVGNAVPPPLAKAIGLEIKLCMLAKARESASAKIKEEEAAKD
human full length DNMT1, sequence (P26358 whole entry): as the sequence (P26358 whole entry, looked up) above

Row | DNMT1 BioChemical (pIC50 category) (DNMT1; [2]) | EC50 [1] [nM] | IC50 (human full length DNMT1) [nM] | IC50 (DNMT1; [3]) [nM] | IC50 (DNMT3B) [nM] | IC50 (human DNMT3a/3l) [nM] | IC50 (DNMT1; breaklight assay and/or SPA assay, repeated experimental runs, read-out: average pIC50 against DNMT1 (converted)) [nM] | SMILES
1 | D (Category D: ≥6.5) | 1000 to 31600 | > 750 | – | – | – | – | CCc1c(C#N)c(SC(C(N)=O)c2ccccc2)nc(N2CCC2)c1C#N (stereo not drawn) [Example 58, 2-[[6-(azetidin-1-yl)-3,5-dicyano-4-ethyl-2-pyridyl]sulfanyl]-2-phenyl-acetamide]
2 | – | 1000 to 31600 | 440 | 316 to 1000 | – | – | – | N#Cc1c(SC(C(N)=O)c2ccccc2)nc(N2CCNC(=O)C2)c(C#N)c1C1CC1 (stereo not drawn) [Example 15, 2-{[3,5-dicyano-4-cyclopropyl-6-(3-oxopiperazin-1-yl)pyridin-2-yl]sulfanyl}-2-phenylacetamide]
3 | – | 316 to 1000 | ≤ 500 | 316 to 1000 | – | – | – | CCCN1CCN(c2nc(SC(C(N)=O)c3ccccc3)c(C#N)c(CC)c2C#N)CC1 (stereo not drawn) [Example 12, 2-{[3,5-dicyano-4-ethyl-6-(4-propylpiperazin-1-yl)pyridin-2-yl]sulfanyl}-2-phenylacetamide]
4 | D (Category D: ≥6.5) | < 316 | ≤ 500 | – | – | – | – | CCc1c(C#N)c(SC(C(N)=O)c2ccccc2)nc(N2C[C@@H](C)N[C@@H](C)C2)c1C#N (stereo partly drawn) [Example 61, 2-((3,5-Dicyano-6-((3S,5R)-3,5-dimethylpiperazin-1-yl)-4-ethylpyridin-2-yl)thio)-2-phenylacetamide]
5 | D (Category D: ≥6.5) | 316 to 1000 | ≤ 500 | – | – | – | – | CCc1c(C#N)c(SC(C(N)=O)c2ccccc2)nc(N2CCC3(CC2)CNC3)c1C#N (stereo not drawn) [Example 43, 2-((3,5-Dicyano-4-ethyl-6-(2,7-diazaspiro[3.5]nonan-7-yl)pyridin-2-yl)thio)-2-phenylacetamide]
6 | – | 1000 to 31600 | > 750 | 316 to 1000 | – | – | – | CC1CN(c2nc(SC(C(N)=O)c3ccccc3)c(C#N)c(C3CC3)c2C#N)CC(C)O1 (stereo not drawn) [Example 21, 2-((3,5-Dicyano-4-cyclopropyl-6-(2,6-dimethylmorpholino)pyridin-2-yl)thio)-2-phenylacetamide]
7 | – | 316 to 1000 | 580 | 316 to 1000 | – | – | – | CCc1c(C#N)c(SC(C(N)=O)c2ccccc2)nc(N(C)CCN2CCOCC2)c1C#N (stereo not drawn) [Example 11, 2-[(3,5-dicyano-4-ethyl-6-{methyl[2-(morpholin-4-yl)ethyl]amino}pyridin-2-yl)sulfanyl]-2-phenylacetamide]
8 | D (Category D: ≥6.5) | < 316 | ≤ 500 | – | – | – | – | CCN1CCCN(c2nc(SC(C(N)=O)c3ccccc3)c(C#N)c(C3CC3)c2C#N)CC1 (stereo not drawn) [Example 5, 2-{[3,5-dicyano-4-cyclopropyl-6-(4-ethyl-1,4-diazepan-1-yl)pyridin-2-yl]sulfanyl}-2-phenylacetamide]
9 | – | 1000 to 31600 | ≤ 500 | 316 to 1000 | – | – | – | CCc1c(C#N)c(SC(C(N)=O)c2ccccc2)nc(N2CCN(CCCN)CC2)c1C#N (stereo not drawn) [Example 37, 2-((6-(4-(3-aminopropyl)piperazin-1-yl)-3,5-dicyano-4-ethylpyridin-2-yl)thio)-2-phenylacetamide]
10 | D (Category D: ≥6.5) | 1000 to 31600 | > 750 | – | – | – | – | CCc1c(C#N)c(SC(C(N)=O)c2ccccc2)nc(N2CCC3(CCO3)C2)c1C#N (stereo not drawn) [Example 36, 2-((3,5-Dicyano-4-ethyl-6-(1-oxa-6-azaspiro[3.4]octan-6-yl)pyridin-2-yl)thio)-2-phenylacetamide]
11 | – | < 316 | > 750 | 316 to 1000 | – | – | – | CN1CCN(c2nc(SC(C(N)=O)c3ccccc3)c(C#N)c(C3CC3)c2C#N)CC1=O (stereo not drawn) [Example 22]
12 | – | < 316 | ≤ 500 | – | – | – | – | CC1CN(c2nc(SC(C(N)=O)c3ccccc3)c(C#N)c(C3CC3)c2C#N)CC(C)N1 (stereo not drawn) [Example 20]
13 | D (Category D: ≥6.5) | < 316 | ≤ 500 | – | – | – | – | N#Cc1c(SC(C(N)=O)c2ccccc2)nc(N2CCC(N)CC2)c(C#N)c1C1CC1 (stereo not drawn) [Example 28, 2-((6-(4-aminopiperidin-1-yl)-3,5-dicyano-4-cyclopropylpyridin-2-yl)thio)-2-phenylacetamide]
14 | D (Category D: ≥6.5) | < 316 | ≤ 500 | – | – | – | – | N#Cc1c(SC(C(N)=O)c2ccccc2)nc(N2CCCC(N)C2)c(C#N)c1C1CC1 (stereo not drawn) [Example 25, 2-((6-(3-aminopiperidin-1-yl)-3,5-dicyano-4-cyclopropylpyridin-2-yl)thio)-2-phenylacetamide]
15 | – | > 31600 | – | 1000 to 31600 | > 500000 | 417000 | – | CCc1c(C#N)c(N)nc(SC(C(N)=O)c2ccccc2)c1C#N (stereo not drawn) [Example 1, 2-[(6-amino-3,5-dicyano-4-ethylpyridin-2-yl)sulfanyl]-2-phenylacetamide]
16 | – | < 316 | – | 316 to 1000 | > 500000 | > 500000 | 316 to 1000 | CCc1c(C#N)c(SC(C(N)=O)c2ccccc2)nc(N2CCN(C(C)=O)CC2)c1C#N (stereo not drawn) [Example 126, 2-((6-(4-Acetylpiperazin-1-yl)-3,5-dicyano-4-ethylpyridin-2-yl)thio)-2-phenylacetamide]
17 | D (Category D: ≥6.5) | 316 to 1000 | – | – | > 500000 | > 500000 | – | CCc1c(C#N)c(SC(C(N)=O)c2ccccc2)nc(N2CC[C@H](O)C2)c1C#N (stereo partly drawn) [Example 49, 2-((3,5-Dicyano-4-ethyl-6-((S)-3-hydroxypyrrolidin-1-yl)pyridin-2-yl)thio)-2-phenylacetamide]
18 | – | 316 to 1000 | – | 316 to 1000 | > 500000 | > 500000 | – | CCc1c(C#N)c(SC(C(N)=O)c2ccccc2)nc(N2CCC(=O)CC2)c1C#N (stereo not drawn) [Example 59, 2-((3,5-dicyano-4-ethyl-6-(4-oxopiperidin-1-yl)pyridin-2-yl)thio)-2-phenylacetamide]
19 | – | < 316 | – | 316 to 1000 | > 500000 | > 500000 | – | CCc1c(C#N)c(SC(C(N)=O)c2ccccc2)nc(N2CCNC(=O)C2)c1C#N (stereo not drawn) [Example 50, 2-((3,5-Dicyano-4-ethyl-6-(3-oxopiperazin-1-yl)pyridin-2-yl)thio)-2-phenylacetamide]
20 | D (Category D: ≥6.5) | < 316 | – | – | > 500000 | > 500000 | – | CCc1c(C#N)c(SC(C(N)=O)c2ccccc2)nc(N2CCCN(CC(C)O)CC2)c1C#N (stereo not drawn) [Example 107, 2-((3,5-dicyano-4-ethyl-6-(4-(2-hydroxypropyl)-1,4-diazepan-1-yl)pyridin-2-yl)thio)-2-phenylacetamide]
